# Tested on: Aphis craccivora
# Assay: Insecticidal activity against Aphis craccivora (cowpea aphid) infested tender soybean shoots exposed to compound solution assessed as insect mortality measured 24 hr post compound treatment (reference value: 4.1%)
# Assay type: functional
row,Structure (SMILES),LC50 [µM]
1,Cc1ccc(C2N3CCN(Cc4ccc(Cl)nc4)C3=C([N+](=O)[O-])C(c3ccco3)C2(C#N)C#N)c(F)c1 (configuration not stated),5.52
2,N#CC1(C#N)C(c2ccco2)C([N+](=O)[O-])=C2N(Cc3ccc(Cl)nc3)CCN2C1c1ccc(C(F)(F)F)c(F)c1 (configuration not stated),87.4
3,N#CC1(C#N)C(c2ccco2)C([N+](=O)[O-])=C2N(Cc3ccc(Cl)nc3)CCN2C1c1cc(C(F)(F)F)ccc1F (configuration not stated),113
4,N#CC1(C#N)C(c2ccco2)C([N+](=O)[O-])=C2N(Cc3ccc(Cl)nc3)CCN2C1c1ccc(Cl)cc1C(F)(F)F (configuration not stated),87.2
5,O=[N+]([O-])/N=C1\NCCN1Cc1ccc(Cl)nc1 [IMIDACLOPRID],35

# Tested on: Aphis craccivora
# Assay: Insecticidal activity against Aphis craccivora (cowpea aphid) infested tender soybean shoots exposed to 500 mg/L compound solution assessed as insect mortality measured 24 hr post compound treatment (reference value: 4.1%)
# Assay type: functional
row,Structure (SMILES),mortality [%]
1,Cc1ccc(C2N3CCN(Cc4ccc(Cl)nc4)C3=C([N+](=O)[O-])C(c3ccco3)C2(C#N)C#N)c(F)c1 (configuration not stated),100
2,N#CC1(C#N)C(c2ccco2)C([N+](=O)[O-])=C2N(Cc3ccc(Cl)nc3)CCN2C1c1cccc(F)c1F (configuration not stated),48.8
3,N#CC1(C#N)C(c2ccco2)C([N+](=O)[O-])=C2N(Cc3ccc(Cl)nc3)CCN2C1c1ccc(OC(F)(F)F)c(Cl)c1 (configuration not stated),0
4,N#CC1(C#N)C(c2ccco2)C([N+](=O)[O-])=C2N(Cc3ccc(Cl)nc3)CCN2C1c1ccc(C(F)(F)F)c(F)c1 (configuration not stated),96.8
5,N#CC1(C#N)C(c2ccco2)C([N+](=O)[O-])=C2N(Cc3ccc(Cl)nc3)CCN2C1c1ccc(F)cc1 (configuration not stated),64.21
6,Cc1ccc(C2N3CCN(Cc4ccc(Cl)nc4)C3=C([N+](=O)[O-])C(c3ccco3)C2(C#N)C#N)cc1 (configuration not stated),0
7,Cc1ccc(F)c(C2N3CCN(Cc4ccc(Cl)nc4)C3=C([N+](=O)[O-])C(c3ccco3)C2(C#N)C#N)c1 (configuration not stated),73.9
8,N#CC1(C#N)C(c2ccco2)C([N+](=O)[O-])=C2N(Cc3ccc(Cl)nc3)CCN2C1c1ccc(Cl)cc1Cl (configuration not stated),85.9
9,N#CC1(C#N)C(c2ccco2)C([N+](=O)[O-])=C2N(Cc3ccc(Cl)nc3)CCN2C1c1cccc(Br)c1 (configuration not stated),75.8
10,N#CC1(C#N)C(c2ccco2)C([N+](=O)[O-])=C2N(Cc3ccc(Cl)nc3)CCN2C1c1ccc(Cl)cc1F (configuration not stated),56.7
11,N#CC1(C#N)C(c2ccco2)C([N+](=O)[O-])=C2N(Cc3ccc(Cl)nc3)CCN2C1c1ccc(Br)cc1Cl (configuration not stated),0
12,N#CC1(C#N)C(c2ccco2)C([N+](=O)[O-])=C2N(Cc3ccc(Cl)nc3)CCN2C1c1cccc([N+](=O)[O-])c1 (configuration not stated),0
13,CN(C)c1ccc(C2N3CCN(Cc4ccc(Cl)nc4)C3=C([N+](=O)[O-])C(c3ccco3)C2(C#N)C#N)cc1 (configuration not stated),0
14,N#Cc1cccc(C2N3CCN(Cc4ccc(Cl)nc4)C3=C([N+](=O)[O-])C(c3ccco3)C2(C#N)C#N)c1 (configuration not stated),0
15,Cc1ccc(F)cc1C1N2CCN(Cc3ccc(Cl)nc3)C2=C([N+](=O)[O-])C(c2ccco2)C1(C#N)C#N (configuration not stated),0
16,N#CC1(C#N)C(c2ccco2)C([N+](=O)[O-])=C2N(Cc3ccc(Cl)nc3)CCN2C1c1cc(C(F)(F)F)ccc1F (configuration not stated),100
17,N#CC1(C#N)C(c2ccco2)C([N+](=O)[O-])=C2N(Cc3ccc(Cl)nc3)CCN2C1c1ccc(Cl)cc1C(F)(F)F (configuration not stated),100
18,N#CC1(C#N)C(c2ccco2)C([N+](=O)[O-])=C2N(Cc3ccc(Cl)nc3)CCN2C1c1ccc([N+](=O)[O-])cc1 (configuration not stated),0
19,N#CC1(C#N)C(c2ccco2)C([N+](=O)[O-])=C2N(Cc3ccc(Cl)nc3)CCN2C1c1ccc(OC(F)(F)F)cc1 (configuration not stated),0
20,N#Cc1ccc(C2N3CCN(Cc4ccc(Cl)nc4)C3=C([N+](=O)[O-])C(c3ccco3)C2(C#N)C#N)cc1 (configuration not stated),0
21,COc1ccc(C2N3CCN(Cc4ccc(Cl)nc4)C3=C([N+](=O)[O-])C(c3ccco3)C2(C#N)C#N)cc1 (configuration not stated),0
22,N#CC1(C#N)C(c2ccco2)C([N+](=O)[O-])=C2N(Cc3ccc(Cl)nc3)CCN2C1c1ccccc1 (configuration not stated),0

# From ChEMBL document CHEMBL3045280, “Designing Tetrahydroimidazo[1,2-a]pyridine derivatives via catalyst-free Aza-Diels-Alder reaction (ADAR) and their insecticidal evaluation” (2010)
